The results in this text go back to US12570662B2, “Substituted pyrrolo[1,2-b]pyridazines as bifunctional degraders of interleukin-1 receptor-associated kinases” (Nurix Therapeutics, Inc., priority 2021, dated 2026).

This assay concerns the target T1, IRAK4 (Homo sapiens, UniProt Q9NWZ3).
T1 construct: C-terminal HiBiT-tagged Jurkat cells (polyclonal cell line or clone 8D5); endogenous in cells; host or cells: Jurkat cells (polyclonal cell line or clone 8D5), HiBiT-tagged
T1 sequence (Q9NWZ3 1-460): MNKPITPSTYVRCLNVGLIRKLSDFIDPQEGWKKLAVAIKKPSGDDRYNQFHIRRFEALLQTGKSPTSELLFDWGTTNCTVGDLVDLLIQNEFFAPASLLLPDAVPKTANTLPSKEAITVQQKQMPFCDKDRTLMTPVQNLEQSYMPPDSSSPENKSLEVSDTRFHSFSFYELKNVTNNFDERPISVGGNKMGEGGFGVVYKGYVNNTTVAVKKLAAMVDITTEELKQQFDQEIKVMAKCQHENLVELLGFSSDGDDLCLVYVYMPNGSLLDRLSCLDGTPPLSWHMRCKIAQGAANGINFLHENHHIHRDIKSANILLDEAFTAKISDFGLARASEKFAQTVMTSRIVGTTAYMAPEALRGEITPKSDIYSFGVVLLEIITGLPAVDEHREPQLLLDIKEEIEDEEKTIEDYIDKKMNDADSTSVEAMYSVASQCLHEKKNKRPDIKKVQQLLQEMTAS
The assay can be described thus: IRAK4 Degradation HiBit Assay. Type of assay: cell-based. To be noted: C-terminal HiBiT-tagged Jurkat cells, 4 hrs incubation; for DC50: % IRAK4 remaining, four-parameter fit (IC50 used as DC50); for Dmax: from fit of % IRAK4 remaining, read-out: Dmax. The method, then:
Compound dilution series (11-point, 3.16-fold dilutions in DMSO, columns 1-11 and 12-22) at 500× the final required concentrations were prepared in Labcyte LDV 384-well plates (cat. no. LP-0200) using a Labcyte Echo 550 Liquid Handler. The 500× solutions ranged from 5 mM to 0.5 μM (final assay concentration range 10 μM to 0.1 nM). Using the Echo, the 500× solutions were stamped into white, 384-well assay plates (Corning, cat. no. 3570) at 60 nL/well. The following assay plate controls were also stamped at 60 nL/well: DMSO in wells E23-P23 (NC, Negative Control, maximum signal), 5 mM solution control compound al in wells A23-D23 and M24-P24 (AC, Active Control, minimum signal/background, 10 μM final assay concentration), control compound al dilution series in wells […] (12-point, 4-fold dilutions). C-terminal HiBiT-tagged Jurkat cells (polyclonal cell line or clone 8D5) were plated at 1×10^6 cells/mL, 30 μL/well (3×10^4 cells/well) in complete RPMI (10% FBS, 1% L-glutamine). Cells were incubated for 4 hrs at 32° C./6% CO2. Compound al has the following structure:
Following incubation, 30 μL of complete Nano-Glo HiBiT Lytic Detection Reagent (Nano-Glo HiBiT Lytic Buffer with 1:50 Nano-Glo HiBiT Lytic Substrate and 1:100 LgBiT Protein; Promega cat. no. N3040) was added. Cells were further incubated for 10 min at room temperature (RT). Luminescence units (LU) were read on an EnVision plate reader (Perkin Elmer, 0.1 sec per well). Percent IRAK4 remaining per sample was calculated as follows: […]
Using Graphpad Prism, % IRAK4 remaining values were plotted as a function of compound concentration. To determine DC50 and Dmax values, resulting curves were fit to the Prism curve-fitting equation “log (inhibitor) vs response-Variable slope (four parameters)” (reported best fit value IC50 used as DC50). Table 1 summarizes the biological data of Compounds of Examples 1-137 and 142-145 obtained from the assays described herein.
On the technique in general: With HiBiT, luminescence reflects the tagged protein that the partner subunit can reach.

For orientation: DC50 means the midpoint of the concentration-degradation curve. High values mean degradation only at high concentration, low ones degradation at low concentration. The term Dmax denotes the greatest extent of degradation seen. `CNc1cc(-c2ccc3cc(C#N)cnn23)ncc1-c1nnc(C23CCC(C(=O)N4CCN(c5ccc(C6CCC(=O)NC6=O)cn5)CC4)(CC2)CC3)s1` (racemic) [Example 27, rac-7-(5-{5-[4-(4-{5-[(3R)-2,6-dioxopiperidin-3-yl]pyridin-2-yl}piperazine-1-carbonyl)bicyclo[2.2.2]octan-1-yl]-1,3,4-thiadiazol-2-yl}-4-(methylamino)pyridin-2-yl)pyrrolo[1,2-b]pyridazine-3-carbonitrile]: it took 12 nM to reach half-maximal degradation (DC50) and the Dmax came out at 101%.

Regarding `N#Cc1cnn2c(-c3cc(NC4CCOCC4)c(-c4nnc(N5CC6CCC(C5)N6C(=O)C5CCN(c6ccc([C@@H]7CCC(=O)NC7=O)cn6)CC5)s4)cn3)ccc2c1` (racemic) [Example 29, rac-7-(5-{5-[8-(1-{5-[(3R)-2,6-dioxopiperidin-3-yl]pyridin-2-yl}piperidine-4-carbonyl)-3,8-diazabicyclo[3.2.1]octan-3-yl]-1,3,4-thiadiazol-2-yl}-4-[(oxan-4-yl)amino]pyridin-2-yl)pyrrolo[1,2-b]pyridazine-3-carbonitrile], half-maximal degradation (DC50) was put at 9 nM and the Dmax stood at 79%.

Turning to `CNc1cc(-c2ccc3cc(C#N)cnn23)ncc1-c1nnc(C2CCC(C(=O)N3CCN(c4ccc([C@@H]5CCC(=O)NC5=O)cc4)CC3)CC2)s1` (mixture of isomers) [Example 32, 7-[4-(methylamino)-5-{5-[(1rs&,4rs&)-4-(4-{4-[(3RS)-2,6-dioxopiperidin-3-yl]phenyl}piperazine-1-carbonyl)cyclohexyl]-1,3,4-thiadiazol-2-yl}pyridin-2-yl]pyrrolo[1,2-b]pyridazine-3-carbonitrile], the DC50 was determined as 10 nM and the Dmax amounted to 54%.

Consider `N#Cc1cnn2c(-c3cc(NC4CCOCC4)c(-c4nnc(N5CCC6(CCN(CC7CCN(c8ccc(C9CCC(=O)NC9=O)cn8)CC7)CC6)CC5)s4)cn3)ccc2c1` (racemic) [Example 33, rac-7-[5-(5-{9-[(1-{5-[(3R)-2,6-dioxopiperidin-3-yl]pyridin-2-yl}piperidin-4-yl)methyl]-3,9-diazaspiro[5.5]undecan-3-yl}-1,3,4-thiadiazol-2-yl)-4-[(oxan-4-yl)amino]pyridin-2-yl]pyrrolo[1,2-b]pyridazine-3-carbonitrile], for which the DC50 was found to be 45 nM and the Dmax came to 101%.

In the case of `N#Cc1cnn2c(-c3cc(NC4CCOCC4)c(-c4nnc(N5CC6CCC(C5)N6CC5CCN(c6ccc([C@@H]7CCC(=O)NC7=O)cn6)CC5)s4)cn3)ccc2c1` (racemic) [Example 34, rac-7-[5-(5-{8-[(1-{5-[(3R)-2,6-dioxopiperidin-3-yl]pyridin-2-yl}piperidin-4-yl)methyl]-3,8-diazabicyclo[3.2.1]octan-3-yl}-1,3,4-thiadiazol-2-yl)-4-[(oxan-4-yl)amino]pyridin-2-yl]pyrrolo[1,2-b]pyridazine-3-carbonitrile], it took 24 nM to reach half-maximal degradation (DC50) and the Dmax is 97%.

In the case of `CCN(C(=O)C1CCN(c2ccc([C@@H]3CCC(=O)NC3=O)cn2)CC1)[C@H]1CC[C@H](c2nnc(-c3cnc(-c4ccc5cc(C#N)cnn45)cc3NC)s2)CC1` (racemic) [Example 35, 1-{5-[(3RS)-2,6-dioxopiperidin-3-yl]pyridin-2-yl}-N-ethyl-N-[(1r,4r)-4-[5-(6-{3-cyanopyrrolo[1,2-b]pyridazin-7-yl}-4-(methylamino)pyridin-3-yl)-1,3,4-thiadiazol-2-yl]cyclohexyl]piperidine-4-carboxamide], the DC50 was 27 nM and the Dmax was determined as 105%.

Take `CCN(CC1CCN(c2ccc([C@@H]3CCC(=O)NC3=O)cn2)CC1)[C@H]1CC[C@H](c2nnc(-c3cnc(-c4ccc5cc(C#N)cnn45)cc3NC)s2)CC1` (racemic) [Example 36, 7-[4-(methylamino)-5-{5-[(1r,4r)-4-{[(1-{5-[(3RS)-2,6-dioxopiperidin-3-yl]pyridin-2-yl}piperidin-4-yl)methyl](ethyl)amino}cyclohexyl]-1,3,4-thiadiazol-2-yl}pyridin-2-yl]pyrrolo[1,2-b]pyridazine-3-carbonitrile]: the DC50 was 20 nM and the Dmax was determined as 105%.
